The supplement of paper PMC10307832

Columns and labels:
Experiment in all cases: relative viability (nuclei count vs DMSO), 5 days (fraction); higher = more cells survive
Everolimus + Vorinostat = compound: CO[C@H]1C[C@@H]2CC[C@@H](C)[C@@](O)(O2)C(=O)C(=O)N2CCCC[C@H]2C(=O)O[C@H]([C@H](C)C[C@@H]2CC[C@@H](OCCO)[C@H](OC)C2)CC(=O)[C@H](C)/C=C(\C)[C@@H](O)[C@@H](OC)C(=O)[C@H](C)C[C@H](C)/C=C/C=C/C=C/1C [Everolimus] + O=C(CCCCCCC(=O)Nc1ccccc1)NO [Vorinostat] (partner 1 µM)
Procedure, shortened: (§1)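 Nuclei were stained with Hoechst during a one-step fixation (final 0.05% Triton X-100, 1% formaldehyde, 1 ug/ml Hoechst) carried out 5 days after dosing, then counted on 4× images. The cells, lung cancer lines in 1536-well plates, had been dosed by pin tool the day after seeding with one drug alone or a fixed anchor-drug dose plus five library-drug doses (not always all listed) in √10 steps. Relative viability is the nuclei count in treated wells divided by that in vehicle wells, and each value is the median of duplicate plates.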

Everolimus + Pictilisib = compound: CO[C@H]1C[C@@H]2CC[C@@H](C)[C@@](O)(O2)C(=O)C(=O)N2CCCC[C@H]2C(=O)O[C@H]([C@H](C)C[C@@H]2CC[C@@H](OCCO)[C@H](OC)C2)CC(=O)[C@H](C)/C=C(\C)[C@@H](O)[C@@H](OC)C(=O)[C@H](C)C[C@H](C)/C=C/C=C/C=C/1C [Everolimus] + CS(=O)(=O)N1CCN(Cc2cc3nc(-c4cccc5[nH]ncc45)nc(N4CCOCC4)c3s2)CC1 [Pictilisib] (partner 1 µM)
Procedure, shortened: as §1

Everolimus + AZD7762 = compound: CO[C@H]1C[C@@H]2CC[C@@H](C)[C@@](O)(O2)C(=O)C(=O)N2CCCC[C@H]2C(=O)O[C@H]([C@H](C)C[C@@H]2CC[C@@H](OCCO)[C@H](OC)C2)CC(=O)[C@H](C)/C=C(\C)[C@@H](O)[C@@H](OC)C(=O)[C@H](C)C[C@H](C)/C=C/C=C/C=C/1C [Everolimus] + NC(=O)Nc1cc(-c2cccc(F)c2)sc1C(=O)N[C@H]1CCCNC1 [AZD7762] (partner 0.2 µM)
Procedure, shortened: as §1

Everolimus + Foretinib = compound: CO[C@H]1C[C@@H]2CC[C@@H](C)[C@@](O)(O2)C(=O)C(=O)N2CCCC[C@H]2C(=O)O[C@H]([C@H](C)C[C@@H]2CC[C@@H](OCCO)[C@H](OC)C2)CC(=O)[C@H](C)/C=C(\C)[C@@H](O)[C@@H](OC)C(=O)[C@H](C)C[C@H](C)/C=C/C=C/C=C/1C [Everolimus] + COc1cc2c(Oc3ccc(NC(=O)C4(C(=O)Nc5ccc(F)cc5)CC4)cc3F)ccnc2cc1OCCCN1CCOCC1 [Foretinib] (partner 0.25 µM)
Procedure, shortened: as §1

Cell Line | relative viability (Everolimus + Vorinostat; first compound 0.01 µM) | relative viability (Everolimus + Vorinostat; first compound 0.03162 µM) | relative viability (Everolimus + Vorinostat; first compound 0.1 µM) | relative viability (Everolimus + Vorinostat; first compound 0.3162 µM) | relative viability (Everolimus + Vorinostat; first compound 1 µM) | relative viability (Everolimus + Pictilisib; first compound 0.01 µM) | relative viability (Everolimus + Pictilisib; first compound 0.03162 µM) | relative viability (Everolimus + Pictilisib; first compound 0.1 µM) | relative viability (Everolimus + Pictilisib; first compound 0.3162 µM) | relative viability (Everolimus + Pictilisib; first compound 1 µM) | relative viability (Everolimus + AZD7762; first compound 0.01 µM) | relative viability (Everolimus + AZD7762; first compound 0.03162 µM) | relative viability (Everolimus + AZD7762; first compound 0.1 µM) | relative viability (Everolimus + AZD7762; first compound 0.3162 µM) | relative viability (Everolimus + AZD7762; first compound 1 µM) | relative viability (Everolimus + Foretinib; first compound 0.01 µM) | relative viability (Everolimus + Foretinib; first compound 0.03162 µM) | relative viability (Everolimus + Foretinib; first compound 0.1 µM) | relative viability (Everolimus + Foretinib; first compound 0.3162 µM) | relative viability (Everolimus + Foretinib; first compound 1 µM)
NCI-H441 | 0.701 | 0.789 | 0.55 | 0.669 | 0.589 | 0.272 | 0.358 | 0.296 | 0.282 | 0.331 | 0.97 | 1.17 | 0.717 | 0.953 | 1.01 | 0.972 | 0.863 | 0.726 | 0.833 | 0.659
NCI-H1793 | 0.344 | 0.288 | 0.322 | 0.356 | 0.251 | 0.225 | 0.222 | 0.141 | 0.237 | 0.19 | 0.242 | 0.244 | 0.259 | 0.21 | 0.197 | 0.293 | 0.314 | 0.259 | 0.293 | 0.291
NCI-H23 | 0.373 | 0.31 | 0.432 | 0.369 | 0.35 | 0.334 | 0.268 | 0.216 | 0.312 | 0.344 | 0.144 | 0.185 | 0.218 | 0.219 | 0.175 | 0.751 | 0.654 | 0.527 | 0.529 | 0.517
HARA | 0.431 | 0.494 | 0.407 | 0.371 | 0.485 | 0.236 | 0.278 | 0.227 | 0.228 | 0.238 | 0.15 | 0.335 | 0.223 | 0.309 | 0.252 | 0.754 | 0.847 | – | 0.793 | 0.845
NCI-H1792 | – | – | – | – | – | 0.189 | 0.14 | 0.121 | 0.148 | 0.105 | 0.312 | 0.312 | 0.304 | 0.185 | 0.262 | – | – | – | – | –
NCI-H1703 | – | – | – | – | – | 0.208 | 0.24 | 0.306 | 0.228 | 0.25 | – | – | – | 0.132 | 0.121 | 0.347 | 0.406 | 0.361 | 0.338 | 0.328
NCI-H1648 | 0.422 | 0.383 | 0.307 | 0.423 | 0.406 | – | – | – | – | – | 0.622 | 0.634 | 0.631 | 0.735 | 1.02 | – | – | – | – | –
CAL-12T | 0.267 | 0.29 | 0.237 | 0.321 | 0.318 | 0.324 | 0.26 | 0.377 | 0.287 | 0.304 | 0.62 | 0.529 | 0.497 | 0.446 | 0.644 | 0.628 | 0.686 | 0.651 | 0.792 | 0.821
NCI-H727 | 0.915 | 0.797 | 0.79 | 0.922 | 0.886 | 0.268 | 0.274 | 0.309 | 0.239 | 0.275 | 0.482 | 0.483 | 0.454 | 0.565 | 0.523 | 0.67 | 0.569 | 0.611 | 0.603 | 0.425
NCI-H2085 | 0.636 | 0.582 | 0.497 | 0.576 | 0.541 | 0.346 | 0.358 | 0.368 | 0.348 | 0.377 | 0.808 | 0.753 | 0.45 | 0.654 | 0.481 | 0.812 | 0.584 | 0.617 | 0.777 | 0.695
NCI-H1395 | 0.549 | 0.33 | 0.505 | 0.478 | 0.58 | 0.571 | 0.548 | 0.508 | 0.5 | 0.496 | 0.394 | 0.374 | 0.335 | 0.405 | 0.339 | 0.901 | 0.683 | 0.727 | 0.617 | 0.627
SW 900 | 0.41 | 0.301 | 0.339 | 0.37 | 0.266 | – | – | – | – | – | 0.362 | 0.33 | 0.285 | 0.36 | 0.427 | 0.685 | 0.477 | 0.748 | 0.525 | 0.508
NCI-H460 | 0.621 | 0.617 | 0.486 | 0.625 | 0.372 | 0.305 | 0.441 | 0.27 | 0.299 | 0.319 | 0.669 | 0.658 | 0.657 | 0.465 | 0.431 | 1.01 | 1.01 | 0.969 | 0.942 | 1.11
A549 | – | – | – | – | – | 0.16 | 0.178 | 0.166 | 0.182 | 0.192 | – | – | – | – | – | 0.688 | 0.421 | 0.306 | 0.393 | 0.435
IA-LM | 0.815 | 0.83 | 0.425 | 0.342 | 0.352 | 0.211 | 0.162 | 0.137 | 0.158 | 0.104 | – | – | – | – | – | 0.927 | 0.547 | 0.476 | 0.595 | 0.42
EKVX | 0.72 | 0.567 | 0.429 | 0.451 | 0.425 | 0.251 | 0.24 | 0.234 | 0.245 | 0.22 | – | 0.68 | 0.41 | 0.415 | 0.432 | 0.582 | 0.808 | 0.428 | 0.444 | 0.555
